Experiments:
[1] = aqueous solutions at either 37° C. or 0° C. at neutral pH; cited from earlier work
[2] = Solubility Screening Test I and II, HPLC of supernatant; format: physicochemical
Method: For each solvent, a 100 μL glass crimp-top vial was charged with ˜10 mg of PX-866 and sealed. By syringe, 2 parts of the appropriate solvent was added. If PX-866 dissolved completely, no further work was done. If necessary, more solvent was added to obtain a supernatant. The crimped vial was sonicated for 15 minutes and then centrifuged for 30 seconds. 1.0 μL of the supernatant was removed by syringe and added to a sealed HPLC vial containing 500 μL of acetonitrile. The same saturated solution was then heated for 30 minutes to a set point of 50° C., centrifuged again, and a second HPLC vial was prepared with 1.0 μL of the supernatant at 50° C. In the case of toluene, anisole, o-xylene, propyl acetate, 4-methyl-2-pentanone, and 1-pentanol the room temperature supernatant was transferred to a clean vial and cooled down to 0° C., and then −20° C. For each temperature, an HPLC vial was prepared with 1.0 μL of the supernatant. HPLC samples were run using the method described below and the 254 nm AUC was plotted on a calibration curve to obtain solubility data.
The samples that crystallized were cooled to 0° C. and subsequently −20° C. to acquire two additional temperature points. Solubility in the aliphatic solvents (propyl acetate, 4-methyl-2-pentanone, and 1-pentanol) decreased drastically with temperature from RT to −20° C.

[3] = tested on: phosphatidylinositol-3-kinase (PI-3K); conditions: cited from earlier work
pulmonary fibrosis = conditions: as described in WO 2010/118250; cited from earlier work
[4] = as described in WO 2011/153488 and WO 2011/153495; cited from earlier work
[5] = Crystallization study in anisole, PX-866 quantified in supernatant; format: physicochemical
Method: 53 mg of PX-866 was placed in a 2 mL flat bottom vial and then added ˜940 μL (18 vol.) of anisole at RT. The supernatant was transferred to another vial and cooled down first to 4° C., and then to −20° C. (PX-866 quantified in aliquots of the supernatant at both temperatures). The resulted solids were dried under a stream of nitrogen and further dried under vacuum at RT for 16 hours, then dried under vacuum at 40° C. for 16 hours. PX-866 concentration in supernatant: RT: 9.9 mg/mL; 4° C.: 7.0 mg/mL; −20° C.: 6.2 mg/mL.

[6] = Water slurry at ambient temperature; format: physicochemical; conditions: 0.5 g slurry in deionized water
Method: An initial solvent screen was performed on PX-866 to determine appropriate primary solvents and anti-solvents. Slurries and several precipitations were then performed utilizing several primary solvents and anti-solvents at 50 mg scale. […] The water slurry was then scaled up to 0.5 g and performed at ambient temperature. Since there was a concern for degradation taking place during the slurry at ambient temperature an additional slurry was performed on 0.5 g scale at 10° C. in an attempt to minimize any potential degradation.

[7] = Initial solvent screen, visual dissolution on adding solvent in 50 μL portions; format: physicochemical; conditions: for Soluble: RT
Method: This initial solvent screen of PX-866 in 18 solvents was executed to select appropriate solvents for slurry experiments. Approximately 1-2 mg of the material was placed in 2 dram glass vials and the chosen solvents were added in 50 μL portions to determine the minimum amount of solvent needed for dissolution. The vials were shaken at ambient temperature and visually inspected between each addition to determine if complete dissolution had taken place.
To estimate the ratio of primary solvent to anti-solvent necessary for use in the slurry experiments, heptane or water was then added to the dissolved PX-866 in […], portions until a turbid solution was formed or solids precipitated out. […] The exceptions occurred when MeCN and AcOH were used as the primary solvent as the product oiled out upon anti-solvent addition.

[8] = Formulation and handling studies of amorphous and crystalline forms; format: physicochemical
From the text: In some embodiments, crystalline forms of Compound 1 and/or analogs thereof show less variability in vitro dissolution profiles as compared to the amorphous form. In some instances, crystalline forms of Compound 1 and/or analogs thereof have better flowability as compared to the amorphous form.

COC[C@H]1OC(=O)c2coc3c2[C@@]1(C)C1=C(C3=O)[C@@H]2CCC(=O)[C@@]2(C)C[C@H]1OC(C)=O [wortmannin]
stability in aqueous solution [1]: subject to decomposition
Solubility ([2]; in toluene, anisole, and o-xylene): low
inhibition of PI-3K [3]: irreversibly inhibits
inhibition of PI-3 kinase isoforms ([3]; p110α, p110β, p110δ and p110γ): inhibited equally

C=CCN(/C=C1/C(=O)O[C@H](COC)[C@@]2(C)C1=C(O)C(=O)C1=C2[C@H](OC(C)=O)C[C@]2(C)C(=O)CC[C@@H]12)CC=C [PX-866, (4S,4aR,5R,6aS,9aR, Z)-1-((diallylamino)methylene)-11-hydroxy-4-(methoxymethyl)-4-a,6a-dimethyl-2,7,10-trioxo-1,2,4,4a,5,6,6a,7,8,9,9a,10-dodecahydroindeno[4,5-h]isochromen-5-yl acetate]
efficacy in pulmonary fibrosis (pulmonary fibrosis): has shown efficacy
efficacy in human trials [4]: has shown efficacy
Solubility ([2]; 1,1,1,3,3,3,hexafluoro-2-propanol, RT): >500 @ RT mg/mL
Solubility ([2]; 1,1,1-trichloroethane, RT): >500 @ RT mg/mL
Solubility ([2]; 1,1,2,2-tetrachloroethane, RT): >500 @ RT mg/mL
Solubility ([2]; 1,4-dioxane, RT): >500 @ RT mg/mL
Solubility ([2]; 1-butanol, RT): >500 @ RT mg/mL
Solubility ([2]; 1-octanol, RT): 90.6 mg/mL
Solubility ([2]; 1-pentanol, 0° C.): 22.8 mg/mL
Solubility ([2]; 1-pentanol, RT): 84.4 mg/mL
Solubility ([2]; 1-pentanol, −20° C.): 2.4 mg/mL
Solubility ([2]; 2,2,2-trifluoroethanol, RT): >500 @ RT mg/mL
Solubility ([2]; 2,2,4-trimethylpentane, RT): 0.37 mg/mL
Solubility ([2]; 2-butanone, RT): >500 @ RT mg/mL
Solubility ([2]; 2-ethoxyethanol, RT): >500 @ RT mg/mL
Solubility ([2]; 4-methyl-2-pentanone, 0° C.): 33.4 mg/mL
Solubility ([2]; 4-methyl-2-pentanone, RT): 38.4 mg/mL
Solubility ([2]; 4-methyl-2-pentanone, −20° C.): 8.5 mg/mL
Solubility ([2]; N-methyl-2-pyrrolidone, RT): >500 @ RT mg/mL
Solubility ([2]; acetone, RT): >500 @ RT mg/mL
Solubility ([2]; anisole, 0° C., supernatant after crystallization): 7.0 mg/mL
Solubility ([2]; anisole, RT, supernatant after crystallization): 9.9 mg/mL
Solubility ([2]; anisole, −20° C., supernatant after crystallization): 6.2 mg/mL
Solubility ([2]; benzyl alcohol, RT): 498.0 mg/mL
Solubility ([2]; butyl acetate, RT): >500 @ RT mg/mL
Solubility ([2]; chlorobenzene, RT): 15.6 mg/mL
Solubility ([2]; cumene, RT): 4.9 mg/mL
Solubility ([2]; di(ethylene glycol), RT): 374.8 mg/mL
Solubility ([2]; dibutyl ether, RT): 3.1 mg/mL
Solubility ([2]; dichloromethane, RT): >500 @ RT mg/mL
Solubility ([2]; diethyl ether, RT): 9.5 mg/mL
Solubility ([2]; diethylamine, RT): >500 @ RT mg/mL
Solubility ([2]; diisopropyl ether, RT): 4.2 mg/mL
Solubility ([2]; dimethylformamide, RT): >500 @ RT mg/mL
Solubility ([2]; dimethylsulfoxide, RT): 252.5 mg/mL
Solubility ([2]; ethanol, RT): >500 @ RT mg/mL
Solubility ([2]; ethanolamine, RT): >500 @ RT mg/mL
Comments: PX-866 in supernatant ([2]; ethanolamine, RT, solution turned dark orange): no PX-866 detected in
Solubility ([2]; ethyl acetate, RT): >500 @ RT mg/mL
Solubility ([2]; ethyl formate, RT): >500 @ RT mg/mL
Solubility ([2]; ethylene glycol, RT): 135.9 mg/mL
Solubility ([2]; glycerol, RT): 12.6 mg/mL
Solubility ([2]; heptanes, RT): 0.88 mg/mL
Solubility ([2]; hexanes, RT): 0.31 mg/mL
Solubility ([2]; isopentanol, RT): 228.2 mg/mL
Solubility ([2]; isopropyl acetate, RT): >500 @ RT mg/mL
Solubility ([2]; isopropyl alcohol, RT): >500 @ RT mg/mL
Solubility ([2]; m-xylene, RT): 4.5 mg/mL
Solubility ([2]; methanol, RT): >500 @ RT mg/mL
Solubility ([2]; methyl acetate, RT): >500 @ RT mg/mL
Solubility ([2]; methyl t-butyl ether, RT): 41.0 mg/mL
Solubility ([2]; methyltetrahydrofuran, RT): >500 @ RT mg/mL
Solubility ([2]; nitromethane, RT): >500 @ RT mg/mL
Solubility ([2]; o-xylene, 0° C., supernatant after crystallization): 7.3 mg/mL
Solubility ([2]; o-xylene, RT, supernatant after crystallization): 5.5 mg/mL
Solubility ([2]; o-xylene, −20° C., supernatant after crystallization): 5.7 mg/mL
Solubility ([2]; p-xylene, RT): 1.0 mg/mL
Solubility ([2]; pentane, RT): 0.79 mg/mL
Solubility ([2]; perfluorohexane, RT): 0.28 mg/mL
Solubility ([2]; propyl acetate, 0° C.): 54.8 mg/mL
Solubility ([2]; propyl acetate, RT): 84.6 mg/mL
Solubility ([2]; propyl acetate, −20° C.): 18.6 mg/mL
Solubility ([2]; sec-butyl ether, RT): 1.3 mg/mL
Solubility ([2]; t-Butanol, 30° C.): 340.0 mg/mL
Solubility ([2]; tetrahydrofuran, RT): >500 @ RT mg/mL
Solubility ([2]; toluene, 0° C., supernatant after crystallization): 2.7 mg/mL
Solubility ([2]; toluene, RT, supernatant after crystallization): 5.2 mg/mL
Solubility ([2]; toluene, −20° C., supernatant after crystallization): 2.6 mg/mL
Solubility ([2]; water, RT): 3.5 mg/mL
Comments: decomposition observed by HPLC ([2]; water, RT, solubility sample): Slightly soluble, significant decomposition
PX-866 concentration in supernatant ([5]; 4° C.): 7.0 mg/mL
PX-866 concentration in supernatant ([5]; RT): 9.9 mg/mL
PX-866 concentration in supernatant ([5]; −20° C.): 6.2 mg/mL
purity after water slurry [6]: notable decrease in PX-866 purity
Soluble ([7]; AcOH, vial conc. 48.0 mg/mL): Yes
Soluble ([7]; Acetone, vial conc. 38.0 mg/mL): Yes
Soluble ([7]; Acetone, vial conc. 102.0 mg/mL (Table 2A)): Yes
Soluble ([7]; DCM, vial conc. 48.0 mg/mL): Yes
Soluble ([7]; DMF, vial conc. 56.0 mg/mL): Yes
Soluble ([7]; Dioxane, vial conc. 38.0 mg/mL): Yes
Soluble ([7]; EtOAc, vial conc. 38.0 mg/mL): Yes
Soluble ([7]; EtOH, vial conc. 56.0 mg/mL): Yes
Soluble ([7]; EtOH, vial conc. 164.0 mg/mL (Table 2A)): Yes
Soluble ([7]; Heptane, vial conc. 0.4 mg/mL): No
Soluble ([7]; IPA, vial conc. 28.0 mg/mL): Yes
Soluble ([7]; IPA, vial conc. 106.0 mg/mL (Table 2A)): Yes
Soluble ([7]; IPAc, vial conc. 32.0 mg/mL): Yes
Soluble ([7]; MECN, vial conc. 100.0 mg/mL (Table 2A)): Yes
Soluble ([7]; MEK, vial conc. 56.0 mg/mL): Yes
Soluble ([7]; MTBE, vial conc. 13.0 mg/mL): Yes
Soluble ([7]; MeCN, vial conc. 16.0 mg/mL): Yes
solubility at ambient temperature ([7]; MeCN, dioxane, acetone, MTBE, EtOH, EtOAc, IPAc, IPA, THF, MEK, DMF, AcOH, MeOH, toluene, DCM): good solubility
Soluble ([7]; MeOH, vial conc. 52.0 mg/mL): Yes
Soluble ([7]; MeOH, vial conc. 150.0 mg/mL (Table 2A)): Yes
Soluble ([7]; THF, vial conc. 52.0 mg/mL): Yes
Soluble ([7]; Toluene, vial conc. 56.0 mg/mL): Yes
Soluble ([7]; Water, vial conc. 0.3 mg/mL): Partially
Soluble ([7]; c-Hexane, vial conc. 0.3 mg/mL): No
Solubility ([7]; c-hexane, heptane, and water): limited or no solubility
stability in solution [8]: poor stability
inhibition of PI-3K [3]: irreversibly inhibits

From US20140275234A1, “COMPOSITIONS AND METHODS OF USING CRYSTALLINE FORMS OF WORTMANNIN ANALOGS” (ONCOTHYREON INC., priority 2010, published 2014)
